As a reminder, the IC50 is the concentration at which inhibition is half-maximal.

The target in data set [1] is T1, human Serotonin 5-HT1B receptor (Homo sapiens, UniProt P28222).
T1 construct: purchased Euroscreen
Put plainly: GTPγS functional assay. It counts as biochemical. To be noted: read-out: Functional activity (agonist). Here is the method:
Functional profiling of agonist and antagonist activities of 8′-OH DHE on human Adrenergic α1D, Dopamine D2L, and Serotonin 5-HT1B, 5-HT1D, 5-HT1F, 5-HT3, 5-HT4e and 5-HT5A receptors (compared against the parent (DHE) molecule) was carried out as follows.
The SPA 35S-GTPγS tests were conducted with Euroscreen membrane preparations […]. The HTRF assays were conducted with recombinant cell lines. The receptor accession numbers, cellular background and reference compounds are as reported below in Table 10.
(3) 8′-OH DHE was tested for agonist and antagonist activity at the human Serotonin 5-HT1B and Serotonin 5-HT1D receptors using GTPγS assay (in triplicate) at the following nanomolar concentrations: […]
The assay procedure was carried out as follows. […] The plates were then centrifuged for 10 minutes at 2,000 rpm and counted for 1 min/well with a Perkin Elmer TopCount reader.
Agonist activity of the test compounds was expressed as a percentage of the activity of the reference agonist at its EC100 concentration. Antagonist activity of the test compounds was expressed as a percentage of the inhibition of the reference agonist activity at its EC80 concentration. Dose-response data from the test compounds were analyzed with XLfit (IDBS) software using nonlinear regression applied to a sigmoidal dose-response model and the following equation: […]

The test system of data set [2] is Purinergic (P2X1/P2X2/P2X3/P2X4/P2X7). Put plainly: Purinergic receptor QPatch patch clamp (agonist/antagonist). To be noted: P2X receptors, 30 and 100 μM. It counts as cell-based, human. As to the method:
Purinergic receptor studies were conducted to monitor activity of 8′-OH DHE against the P2X1, P2X2, P2X3, P2X4 and P2X7 receptors. Human recombinant purinergic receptor-expressing HEK293 cells were used, and receptor activity was evaluated at RT using QPatch HT® (Sophion Bioscience A/S, Denmark) automatic parallel patch clamp system. The test 8′-OH DHE compound was evaluated in both agonist and antagonist modes at 30 and 100 μM. Each concentration was tested in triplicate.
A general note: Patch clamp records ionic current or voltage across a cell membrane.

A further data set deals with T2, OP2 (κ) (Homo sapiens, UniProt P41145).
T2 construct: expressed in transfected cells; host or cells: CHO-K1 (membrane extracts)
T2 sequence (P41145 whole entry): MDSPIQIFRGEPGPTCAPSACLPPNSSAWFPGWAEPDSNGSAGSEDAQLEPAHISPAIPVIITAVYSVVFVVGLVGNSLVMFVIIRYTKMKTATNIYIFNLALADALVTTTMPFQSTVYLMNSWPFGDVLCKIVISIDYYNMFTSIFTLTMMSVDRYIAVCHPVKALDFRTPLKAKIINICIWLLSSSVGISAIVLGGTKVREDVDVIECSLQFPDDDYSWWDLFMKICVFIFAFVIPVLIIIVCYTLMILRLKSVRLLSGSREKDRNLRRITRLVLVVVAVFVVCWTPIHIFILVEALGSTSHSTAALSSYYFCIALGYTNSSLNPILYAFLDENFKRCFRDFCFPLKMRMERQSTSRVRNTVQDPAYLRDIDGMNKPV
Nature of the data set: GTPγS assay. It counts as biochemical. To be noted: antagonism. Here is the method:
Additional receptor agonist/agonist activity assessments were performed using the 8′-OH DHE test compound. Table 12 contains a summary of the cell lines (CHO-K1/HEK293 transfected with relevant human receptor) and the assays performed to detect any agonist or antagonist activity.
Reagents used were the following: Assay buffer (20 mM HEPES, pH 7.4; 100 mM NaCl; 10 mg/mL saponin; 30 mM MgCl2); Membranes (recombinant human receptor membrane extracts were thawed on ice and diluted in assay buffer to give […] (10 μgμL) and kept on ice); GDP (diluted in assay buffer to give 30 μM solution (3 μM final concentration); beads (PVT-WGA (Amersham, RPNQ001), diluted in assay buffer at 25 mg/mL (0.25 mg/10 μL)); GTPγ^35S (Perkin Elmer, NEG030X), diluted in assay buffer to give 0.1 nM (final concentration); and ligand (agonist/antagonist diluted in assay buffer).
Membranes were mixed with GDP (1:1) and incubated for at least 15 minutes on ice. In parallel, GTPγ^35S was mixed with the beads (1:1) just before starting the reaction. […] The plates were then centrifuged for 10 minutes at 2,000 rpm and incubated at RT for 1 hour and counted for 1 min/well with a Perkin Elmer TopCount reader.

For data set [3] the following is noted: subcutaneous, 1.5 mM; cited from earlier work.

Each structure is given as a SMILES string.

T1 sequence (P28222 whole entry): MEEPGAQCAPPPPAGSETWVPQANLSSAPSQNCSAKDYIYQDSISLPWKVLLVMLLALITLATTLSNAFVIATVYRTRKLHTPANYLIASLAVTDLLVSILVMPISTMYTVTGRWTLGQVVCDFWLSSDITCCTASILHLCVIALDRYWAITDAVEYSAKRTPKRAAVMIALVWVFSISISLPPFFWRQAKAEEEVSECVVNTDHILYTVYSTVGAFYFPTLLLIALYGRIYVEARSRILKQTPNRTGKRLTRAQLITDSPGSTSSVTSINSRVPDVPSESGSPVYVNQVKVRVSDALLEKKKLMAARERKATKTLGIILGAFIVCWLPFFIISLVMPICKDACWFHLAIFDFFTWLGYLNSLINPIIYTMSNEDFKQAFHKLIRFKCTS

Turning to `CN1C[C@H](C(=O)N[C@]2(C)O[C@@]3(O)[C@@H]4CCC(O)N4C(=O)[C@H](Cc4ccccc4)N3C2=O)C[C@@H]2c3cccc4[nH]cc(c34)C[C@H]21` (stereo partly shown) [8′-OH DHE, 8′-Hydroxy-Dihydroergotamine], the EC50 in data set [1] amounted to 0.73 nM. Also, the “Activity (Agonism: EC50; Antagonism: IC50)” value in data set [2] is listed as “Inactive”. In addition, the IC50 against OP2 (κ) is > 1000 nM.
In the case of `CN1C[C@H](C(=O)N[C@]2(C)O[C@@]3(O)[C@@H]4CCCN4C(=O)[C@H](Cc4ccccc4)N3C2=O)C[C@@H]2c3cccc4[nH]cc(c34)C[C@H]21` [DHE, Dihydroergotamine], the “nausea, share of treated patients” value in data set [3] is ~16%.

The record behind these values is patent US20150306096A1, “8'-HYDROXY-DIHYDROERGOTAMINE COMPOUNDS AND COMPOSITIONS” (MAP Pharmaceuticals, Inc., priority 2012, published 2015).
